From ChEMBL document CHEMBL3400016, “Isolation, synthesis and anti-hepatitis B virus evaluation of p-hydroxyacetophenone derivatives from Artemisia capillaris” (Bioorg Med Chem Lett, 2015)

Legend:
[1] = Selectivity index, ratio of CC50 for human HepG2.2.15 cells to IC50 for decrease in hepatitis B viral DNA replication in human HepG2(2.2.15) cells; type: functional
Hepatitis B virus [2] = assay: Antiviral activity against hepatitis B viral in human HepG2.2.15 cells assessed as decrease in viral DNA replication treated for 7 days by real time PCR analysis; type: functional, organism-based; details: HepG2 2.2.15, 168 h
[3] = Cytotoxicity against human HepG 2.2.15 cells by MTT assay; type: cell-based, HepG2 2.2.15
Hepatitis B virus [4] = assay: Antiviral activity against hepatitis B viral in human HepG2.2.15 cells assessed as […] antigen HBeAg secretion after 72 hrs by ELISA; type: functional, organism-based; details: HepG2 2.2.15, 72 h
Hepatitis B virus [5] = assay: Antiviral activity against hepatitis B viral in human HepG2.2.15 cells assessed as surface antigen HBsAg secretion after 72 hrs by ELISA; type: functional, organism-based; details: HepG2 2.2.15, 72 h
[6] = Selectivity index, ratio of CC50 for human HepG2.2.15 cells to IC50 for decrease in hepatitis B viral surface antigen HBsAg secretion in human HepG2(2.2.15) cells; type: functional
[7] = Selectivity index, ratio of CC50 for human HepG2.2.15 cells to IC50 for decrease in hepatitis B viral […] antigen HBeAg secretion in human HepG2(2.2.15) cells; type: functional

| Compound | IC50 (Hepatitis B virus [2]) | IC50 (Hepatitis B virus [4]) | IC50 (Hepatitis B virus [5]) | Selectivity Index [1] | CC50 [3] | Selectivity Index [6] | Selectivity Index [7] |
| --- | --- | --- | --- | --- | --- | --- | --- |
| COc1cc(C(=O)OC[C@H]2O[C@@H](Oc3ccc(C(C)=O)cc3)[C@H](O)[C@@H](O)[C@@H]2O)cc(OC)c1OC | 20.7 µM | > 1490 µM | 1350 µM | 42.9 | 890 µM | – | – |
| CC(=O)c1ccc(O[C@@H]2O[C@H](COC(=O)c3ccccc3)[C@@H](O)[C@H](O)[C@H]2O)cc1 | 93.7 µM | > 1680 µM | 678 µM | 11.2 | 1050 µM | 1.5 | – |
| CC(=O)c1ccc(O[C@@H]2O[C@H](CO)[C@@H](O)[C@H](O)[C@H]2O)cc1 [PICEIN] | 228 µM | > 3950 µM | > 3950 µM | >17.3 | > 3950 µM | – | – |
| COc1ccc(/C=C/C(=O)Oc2ccc(C(C)=O)cc2)cc1 | > 820 µM | > 3280 µM | > 3280 µM | – | > 3280 µM | – | – |
| COc1cc(O[C@@H]2O[C@H](CO)[C@@H](O)[C@H](O)[C@H]2O)cc(O)c1C(C)=O | 92 µM | > 2370 µM | > 2370 µM | >25.7 | > 2370 µM | – | – |
| COc1ccc(/C=C/C(=O)OC[C@H]2O[C@@H](Oc3ccc(C(C)=O)cc3)[C@H](O)[C@@H](O)[C@@H]2O)cc1 | 18.5 µM | > 2080 µM | 782 µM | 83.2 | 1540 µM | 2 | – |
| COc1cccc(/C=C/C(=O)OC[C@H]2O[C@@H](Oc3ccc(C(C)=O)cc3)[C@H](O)[C@@H](O)[C@@H]2O)c1 | 16.8 µM | > 1520 µM | 499 µM | >90.5 | > 1520 µM | >3 | – |
| C[C@H](Cn1cnc2c(N)ncnc21)OCP(=O)(O)O [TENOFOVIR ANHYDROUS] | 2.9 µM | > 1740 µM | > 1740 µM | >600.8 | > 1740 µM | – | – |
| CC(=O)c1ccc(O[C@@H]2O[C@H](COC(=O)c3cccnc3)[C@@H](O)[C@H](O)[C@H]2O)cc1 | 103 µM | > 1650 µM | 1430 µM | >16 | > 1650 µM | >1.2 | – |
| CC(=O)c1ccc(O[C@@H]2O[C@H](COC(=O)/C=C/c3ccc(F)cc3)[C@@H](O)[C@H](O)[C@H]2O)cc1 | 64.8 µM | > 1520 µM | 613 µM | >23.4 | 917 µM | 1.5 | – |
| CC(=O)c1ccc(O[C@@H]2O[C@H](COC(=O)/C=C/c3ccccc3)[C@@H](O)[C@H](O)[C@H]2O)cc1 | 67.3 µM | > 1740 µM | > 1740 µM | >25.9 | > 1740 µM | – | – |
| CC(=O)c1ccc(OC(=O)c2ccccc2)cc1 | 837 µM | > 3350 µM | 2160 µM | – | > 3350 µM | >1.5 | – |

Further lines, with some results ahead:

| IC50 (Hepatitis B virus [2]) | IC50 (Hepatitis B virus [4]) | IC50 (Hepatitis B virus [5]) | Compound | Selectivity Index [1] | CC50 [3] | Selectivity Index [6] | Selectivity Index [7] |
| --- | --- | --- | --- | --- | --- | --- | --- |
| 115 µM | > 2420 µM | 286 µM | COc1cc(/C=C/C(=O)Oc2ccc(C(C)=O)cc2)cc(OC)c1OC | >21.1 | > 2420 µM | >8.5 | – |
| > 649 µM | 1710 µM | 610 µM | CC(=O)c1ccc(OC(=O)/C=C/c2ccc(F)c(F)c2)cc1 | – | > 2600 µM | >4.3 | >1.5 |
| 88.8 µM | > 2580 µM | 648 µM | COc1cc(C(=O)Oc2ccc(C(C)=O)cc2)cc(OC)c1OC | 13.6 | 1210 µM | 1.9 | – |
| > 1010 µM | > 4050 µM | 1830 µM | CC(=O)c1ccc(OC(=O)c2ccco2)cc1 | – | > 4050 µM | >2.2 | – |
| > 719 µM | > 2870 µM | 2400 µM | CC(=O)c1ccc(OC(=O)/C=C/c2ccccc2)cc1 | – | > 2870 µM | >1.2 | – |
| > 696 µM | > 2780 µM | 1260 µM | COc1cccc(/C=C/C(=O)Oc2ccc(C(C)=O)cc2)c1 | – | > 2780 µM | >2.2 | – |
| > 759 µM | > 3040 µM | 1890 µM | CC(=O)c1ccc(OC(=O)/C=C/c2ccc3c(c2)OCO3)cc1 | – | > 3040 µM | >1.6 | – |
| 8.8 µM | > 1450 µM | 696 µM | COc1ccc(/C=C/C(=O)OC[C@H]2O[C@@H](Oc3ccc(C(C)=O)cc3)[C@H](O)[C@@H](O)[C@@H]2O)cc1OC | >165 | > 1450 µM | >2.1 | – |
| 154 µM | > 3300 µM | 546 µM | CC(=O)c1ccc(OC(=O)c2cccnc2)cc1 | 19.5 | 3010 µM | 5.5 | – |
| > 927 µM | > 3710 µM | 3530 µM | CC(=O)c1ccc(OC(=O)c2cccs2)cc1 | – | > 3710 µM | >1 | – |
| 31.4 µM | > 1710 µM | 301 µM | CC(=O)c1ccc(O[C@@H]2O[C@H](COC(=O)c3cccs3)[C@@H](O)[C@H](O)[C@H]2O)cc1 | 50.1 | 1570 µM | 5.2 | – |
| 5.8 µM | > 1480 µM | 526 µM | COc1cc(/C=C/C(=O)OC[C@H]2O[C@@H](Oc3ccc(C(C)=O)cc3)[C@H](O)[C@@H](O)[C@@H]2O)cc(OC)c1OC | 160.3 | 925 µM | 1.8 | – |
| 22.8 µM | > 1450 µM | 434 µM | CC(=O)c1ccc(O[C@@H]2O[C@H](COC(=O)/C=C/c3cccc(F)c3)[C@@H](O)[C@H](O)[C@H]2O)cc1 | 36.5 | 828 µM | 1.9 | – |
| 101 µM | > 1880 µM | 571 µM | CC(=O)c1ccc(O[C@@H]2O[C@H](COC(=O)c3ccco3)[C@@H](O)[C@H](O)[C@H]2O)cc1 | 11.7 | 1170 µM | 2.1 | – |
| 74.4 µM | > 1470 µM | 698 µM | CC(=O)c1ccc(O[C@@H]2O[C@H](COC(=O)/C=C/c3ccc4c(c3)OCO4)[C@@H](O)[C@H](O)[C@H]2O)cc1 | >19.8 | > 1470 µM | >2.1 | – |
| 22.5 µM | > 1770 µM | 515 µM | CC(=O)c1ccc(O[C@@H]2O[C@H](COC(=O)/C=C/c3ccc(F)c(F)c3)[C@@H](O)[C@H](O)[C@H]2O)cc1 | 38.9 | 874 µM | 1.7 | – |
| 38.5 µM | > 2600 µM | > 2600 µM | CC(=O)c1ccc(O[C@@H]2O[C@H](CO[C@@H]3OC[C@@H](O)[C@H](O)[C@H]3O)[C@@H](O)[C@H](O)[C@H]2O)cc1 | >67.5 | > 2600 µM | – | – |
| 100 µM | > 2620 µM | 1040 µM | COc1ccc(/C=C/C(=O)Oc2ccc(C(C)=O)cc2)cc1OC | >26 | > 2620 µM | >2.5 | – |
